Here are results for eleven compounds from US10633353B2, “Polymerizable compound, composition, polymer, optically anisotropic body, liquid crystal display element, and organic EL display” (DIC Corporation, priority 2014, dated 2020).

A short description of this data set: Preservation stability of the coating liquid. In kind it is physicochemical. The following applies: coating liquid stored for 2 months shielded from light at 0° C.; appearance and GPC. Here is the method: The preservation stability of the coating liquid was evaluated on a scale of A to E on the basis of the state of the coating liquid that was stored for 2 months under a condition where the coating liquid was shielded from light at 0° C.
A: No visual change in the appearance of the coating liquid was confirmed. A GPC analysis of the coating liquid confirmed that the change in the composition of the coating liquid was 1% or less.
B: No visual change in the appearance of the coating liquid was confirmed. A GPC analysis of the coating liquid confirmed that the change in the composition of the coating liquid was 2% or less.
C: A visual change in the appearance of the coating liquid was confirmed; a trace amount of insoluble components were confirmed, or a GPC analysis of the coating liquid confirmed that the change in the composition of the coating liquid was 3% or less.
D: A visual change in the appearance of the coating liquid was confirmed; insoluble components were confirmed. The ratio of the weight of the insoluble components to the total solid content was 5% or less.
E: A large amount of insoluble components were visually confirmed. The ratio of the weight of the insoluble components to the total solid content was 5% or more.
Consider `C=CC(=O)OCCCCCCOc1ccc(C(=O)OCCc2ccc(OC(=O)c3ccc(OCCCCCCOC(=O)C=C)cc3)c(/C=N/Nc3nc4ccccc4s3)c2)cc1` [1-c-1], for which the Preservation stability result is “A (No visual change in the appearance of the coating liquid was confirmed. A GPC analysis of the coating liquid confirmed that the change in the composition of the coating liquid was 1% or less.)”. Regarding `C=CC(=O)OCCCOc1ccc(C(=O)OCCc2ccc(OC(=O)c3ccc(OCCCOC(=O)C=C)cc3)c(/C=N/Nc3nc4ccccc4s3)c2)cc1` [1-c-2], the Preservation stability entry is listed as “A (No visual change in the appearance of the coating liquid was confirmed. A GPC analysis of the coating liquid confirmed that the change in the composition of the coating liquid was 1% or less.)”.

Take `C=CC(=O)OCCCCOc1ccc(C(=O)OCCc2ccc(OC(=O)c3ccc(OCCCCOC(=O)C=C)cc3)c(/C=N/Nc3nc4ccccc4s3)c2)cc1` [1-c-3]: the Preservation stability result is reported as “A (No visual change in the appearance of the coating liquid was confirmed. A GPC analysis of the coating liquid confirmed that the change in the composition of the coating liquid was 1% or less.)”.

Regarding `C=CC(=O)OCCCCCOc1ccc(C(=O)OCCc2ccc(OC(=O)c3ccc(OCCCCCOC(=O)C=C)cc3)c(/C=N/Nc3nc4ccccc4s3)c2)cc1` [1-c-4], the Preservation stability entry is recorded as “A (No visual change in the appearance of the coating liquid was confirmed. A GPC analysis of the coating liquid confirmed that the change in the composition of the coating liquid was 1% or less.)”. The value for `C=C(C)C(=O)OCCCOc1ccc(C(=O)OCCc2ccc(OC(=O)c3ccc(OCCCOC(=O)C(=C)C)cc3)c(/C=N/Nc3nc4ccccc4s3)c2)cc1` [1-c-5] was “A (No visual change in the appearance of the coating liquid was confirmed. A GPC analysis of the coating liquid confirmed that the change in the composition of the coating liquid was 1% or less.)”; that for `C=C(C)C(=O)OCCCCOc1ccc(C(=O)OCCc2ccc(OC(=O)c3ccc(OCCCCOC(=O)C(=C)C)cc3)c(/C=N/Nc3nc4ccccc4s3)c2)cc1` [1-c-6] was “A (No visual change in the appearance of the coating liquid was confirmed. A GPC analysis of the coating liquid confirmed that the change in the composition of the coating liquid was 1% or less.)”; that for `C=C(C)C(=O)OCCCCCOc1ccc(C(=O)OCCc2ccc(OC(=O)c3ccc(OCCCCCOC(=O)C(=C)C)cc3)c(/C=N/Nc3nc4ccccc4s3)c2)cc1` [1-c-7] was “A (No visual change in the appearance of the coating liquid was confirmed. A GPC analysis of the coating liquid confirmed that the change in the composition of the coating liquid was 1% or less.)”. Turning to `C=C(C)C(=O)OCCCCCCOc1ccc(C(=O)OCCc2ccc(OC(=O)c3ccc(OCCCCCCOC(=O)C(=C)C)cc3)c(/C=N/Nc3nc4ccccc4s3)c2)cc1` [1-c-8], the Preservation stability result is given as “A (No visual change in the appearance of the coating liquid was confirmed. A GPC analysis of the coating liquid confirmed that the change in the composition of the coating liquid was 1% or less.)”. As for `C=CC(=O)OCCCOc1ccc(C(=O)OCCc2ccc(CCOC(=O)c3ccc(OCCCOC(=O)C=C)cc3)c(/C=N/Nc3nc4ccccc4s3)c2)cc1` [1-c-9], the entry is “A (No visual change in the appearance of the coating liquid was confirmed. A GPC analysis of the coating liquid confirmed that the change in the composition of the coating liquid was 1% or less.)”; as for `C=CC(=O)OCCCCOc1ccc(C(=O)OCCc2ccc(CCOC(=O)c3ccc(OCCCCOC(=O)C=C)cc3)c(/C=N/Nc3nc4ccccc4s3)c2)cc1` [1-c-10], “A (No visual change in the appearance of the coating liquid was confirmed. A GPC analysis of the coating liquid confirmed that the change in the composition of the coating liquid was 1% or less.)”. As for `C=CC(=O)OCCCCCOc1ccc(C(=O)OCCc2ccc(CCOC(=O)c3ccc(OCCCCCOC(=O)C=C)cc3)c(/C=N/Nc3nc4ccccc4s3)c2)cc1` [1-c-11], the entry is “A (No visual change in the appearance of the coating liquid was confirmed. A GPC analysis of the coating liquid confirmed that the change in the composition of the coating liquid was 1% or less.)”.
